For 1 molecule, IC50 results are on record in BindingDB's records for doi:10.1021/acs.jmedchem.1c01655 (University of California San Diego, 2022).

Each structure is given as a SMILES string.

The target in this test is T1, Carboxy-terminal domain RNA polymerase II polypeptide A small phosphatase 1 (Homo sapiens, UniProt Q9GZU7).
T1 sequence (Q9GZU7 whole entry): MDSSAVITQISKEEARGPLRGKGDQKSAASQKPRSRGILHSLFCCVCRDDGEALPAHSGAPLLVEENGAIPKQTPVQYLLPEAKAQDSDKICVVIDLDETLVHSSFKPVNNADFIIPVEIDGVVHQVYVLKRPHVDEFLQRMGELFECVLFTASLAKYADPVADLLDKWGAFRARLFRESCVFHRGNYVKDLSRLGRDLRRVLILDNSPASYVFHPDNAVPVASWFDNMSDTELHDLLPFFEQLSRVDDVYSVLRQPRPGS
As to the kind of experiment: Inhibition of wild type human SCP1 using pNPP as substrate incubated for 0.5 to 18 hrs followed by substrate addition by absorbance based analysis.

For orientation: IC50 means the concentration needed to halve the response being measured. A lower IC50 goes with greater potency in that assay. The molecule `O=C(C1=CC2=C(CCC2)S1(=O)=O)N1CCN(S(=O)(=O)c2ccc(F)cc2)CC1` showed a 50% inhibitory concentration (IC50) of 220 µM.
